Target: T1, human mAChR M4 (Homo sapiens, UniProt P08173)
T1 construct: expressed in transfected cells; host or cells: CHO-K1 (American Type Culture Collection), stably expressing hM4 and Gqi5
T1 sequence (P08173 1-479): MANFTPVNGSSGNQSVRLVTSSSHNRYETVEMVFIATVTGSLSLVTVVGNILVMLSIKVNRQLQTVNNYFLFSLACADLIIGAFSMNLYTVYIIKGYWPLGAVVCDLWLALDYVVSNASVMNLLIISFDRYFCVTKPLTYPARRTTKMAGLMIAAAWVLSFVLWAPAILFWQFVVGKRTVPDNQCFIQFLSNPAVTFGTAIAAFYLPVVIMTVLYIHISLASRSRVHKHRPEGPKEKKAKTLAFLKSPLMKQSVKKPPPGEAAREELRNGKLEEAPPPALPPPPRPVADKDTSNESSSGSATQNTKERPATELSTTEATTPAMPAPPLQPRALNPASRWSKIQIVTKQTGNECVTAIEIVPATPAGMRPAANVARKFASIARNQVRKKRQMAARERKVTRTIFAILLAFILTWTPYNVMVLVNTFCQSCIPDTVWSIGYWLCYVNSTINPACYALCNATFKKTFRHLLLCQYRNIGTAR
Experiment: mAChR M4 cell-based functional assay: calcium mobilization (Fluo-4, FDSS), potentiation of EC20 acetylcholine response in hM4-Gqi5 CHO-K1 cells
Conditions: human M4; for Emax at 30 µM: CHO-K1, % ACh maximum at 30 μM; for EC50: potentiation of EC20 acetylcholine response, calcium mobilization
Procedure, shortened: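 CHO-K1 cells stably co-expressing human M4 and chimeric Gqi5, loaded with Fluo-4 AM (50 min, 37 °C). Compounds in 11-point 1:3 series added first; EC20 acetylcholine added at 144 s and again at 230 s. Calcium read on FDSS at 1 Hz; EC50 and Emax from four-parameter logistic fit of potentiated EC20 response.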

Compound | Emax at 30 µM [%] | EC50 [nM]
Cc1ccc(-c2cnc3c(c2)CN(c2nn4c(=O)cc(C(F)F)nc4c(C)c2C)CC3)cn1 [Compound 1-85, 2-(difluoromethyl)-8,9-dimethyl-7-(3-(6-methylpyridin-3-yl)-7,8-dihydro-1,6-naphthyridin-6(5H)-yl)-4H-pyrimido[1,2-b]pyridazin-4-one] | 103 | 127
Cc1ccc(-c2cnc3c(c2)CN(c2nn4c(=O)c(C)cnc4cc2C)CC3)cn1 [Compound 1-86, 3,8-dimethyl-7-(3-(6-methylpyridin-3-yl)-7,8-dihydro-1,6-naphthyridin-6(5H)-yl)-4H-pyrimido[1,2-b]pyridazin-4-one] | 94 | 243
Cc1c(N2CCc3ncc(-c4ccc(F)nc4)cc3C2)nn2c(=O)ccnc2c1C [Compound 1-87, 7-(3-(6-Fluoropyridin-3-yl)-7,8-dihydro-1,6-naphthyridin-6(5H)-yl)-8,9-dimethyl-4H-pyrimido[1,2-b]pyridazin-4-one] | 82 | 128
Cc1ccc(-c2cnc3c(c2)CN(c2nn4c(=O)c(Br)cnc4c(C)c2C)CC3)cn1 [Compound 1-88, 3-bromo-8,9-dimethyl-7-(3-(6-methylpyridin-3-yl)-7,8-dihydro-1,6-naphthyridin-6(5H)-yl)-4H-pyrimido[1,2-b]pyridazin-4-one] | 83 | 97
Cc1c(N2CCc3ncc(-c4ccc(N(C)C)nc4)cc3C2)nn2c(=O)ccnc2c1C [Compound 1-89, 7-(3-(6-(dimethylamino)pyridin-3-yl)-7,8-dihydro-1,6-naphthyridin-6(5H)-yl)-8,9-dimethyl-4H-pyrimido[1,2-b]pyridazin-4-one] | 70 | 231
Cc1c(N2CCc3ncc(-c4ccc(C(F)(F)F)nc4)cc3C2)nn2c(=O)ccnc2c1C [Compound 1-90, 8,9-dimethyl-7-(3-(6-(trifluoromethyl)pyridin-3-yl)-7,8-dihydro-1,6-naphthyridin-6(5H)-yl)-4H-pyrimido[1,2-b]pyridazin-4-one] | 87 | 669
Cc1c(N2CCc3ncc(-c4ccc(C5CC5)nc4)cc3C2)nn2c(=O)ccnc2c1C [Compound 1-91, 7-(3-(6-Cyclopropylpyridin-3-yl)-7,8-dihydro-1,6-naphthyridin-6(5H)-yl)-8,9-dimethyl-4H-pyrimido[1,2-b]pyridazin-4-one] | 83 | 127
Cc1c(N2CCc3ncc(-c4ccc(N(C)C)nc4)cc3C2)nn2c(=O)cc(C(F)F)nc2c1C [Compound 1-92, 2-(difluoromethyl)-7-(3-(6-(dimethylamino)pyridin-3-yl)-7,8-dihydro-1,6-naphthyridin-6(5H)-yl)-8,9-dimethyl-4H-pyrimido[1,2-b]pyridazin-4-one] | 76 | 339
Cc1c(N2CCc3ncc(-c4ccc(C(F)(F)F)nc4)cc3C2)nn2c(=O)cc(C(F)F)nc2c1C [Compound 1-93, 2-(difluoromethyl)-8,9-dimethyl-7-(3-(6-(trifluoromethyl)pyridin-3-yl)-7,8-dihydro-1,6-naphthyridin-6(5H)-yl)-4H-pyrimido[1,2-b]pyridazin-4-one] | 90 | 333
Cc1c(N2CCc3ncc(-c4ccc(C5CC5)nc4)cc3C2)nn2c(=O)cc(C(F)F)nc2c1C [Compound 1-94, 7-(3-(6-cyclopropylpyridin-3-yl)-7,8-dihydro-1,6-naphthyridin-6(5H)-yl)-2-(difluoromethyl)-8,9-dimethyl-4H-pyrimido[1,2-b]pyridazin-4-one] | 79 | 122
Cc1ccncc1-c1cnc2c(c1)CN(c1nn3c(=O)ccnc3c(C)c1C)CC2 [Compound 1-95, 8,9-dimethyl-7-(3-(4-methylpyridin-3-yl)-7,8-dihydro-1,6-naphthyridin-6(5H)-yl)-4H-pyrimido[1,2-b]pyridazin-4-one] | 99 | 68
CCc1ccncc1-c1cnc2c(c1)CN(c1nn3c(=O)ccnc3c(C)c1C)CC2 [Compound 1-96, 7-(3-(4-ethylpyridin-3-yl)-7,8-dihydro-1,6-naphthyridin-6(5H)-yl)-8,9-dimethyl-4H-pyrimido[1,2-b]pyridazin-4-one] | 63 | 37
Cc1c(N2CCc3ncc(-c4ccc(N5CCCCC5)nc4)cc3C2)nn2c(=O)ccnc2c1C [Compound 1-97, 8,9-dimethyl-7-(3-(6-(piperidin-1-yl)pyridin-3-yl)-7,8-dihydro-1,6-naphthyridin-6(5H)-yl)-4H-pyrimido[1,2-b]pyridazin-4-one] | 79 | 397
Cc1c(N2CCc3ncc(-c4ccc(-n5ccnc5)nc4)cc3C2)nn2c(=O)ccnc2c1C [Compound 1-98, 7-(3-(6-(1H-imidazol-1-yl)pyridin-3-yl)-7,8-dihydro-1,6-naphthyridin-6(5H)-yl)-8,9-dimethyl-4H-pyrimido[1,2-b]pyridazin-4-one] | 86 | 534
Cc1c(N2CCc3ncc(-c4ccc(N5CCOCC5)nc4)cc3C2)nn2c(=O)ccnc2c1C [Compound 1-99, 8,9-dimethyl-7-(3-(6-morpholinopyridin-3-yl)-7,8-dihydro-1,6-naphthyridin-6(5H)-yl)-4H-pyrimido[1,2-b]pyridazin-4-one] | 88 | 190
Cc1ccc(-c2cnc3c(c2)CN(c2nn4c(=O)c(C)cnc4c(C)c2C)CC3)cn1 [Compound 1-100, 3,8,9-trimethyl-7-(3-(6-methylpyridin-3-yl)-7,8-dihydro-1,6-naphthyridin-6(5H)-yl)-4H-pyrimido[1,2-b]pyridazin-4-one] | 92 | 134
Cc1ncccc1-c1cnc2c(c1)CN(c1nn3c(=O)ccnc3c(C)c1C)CC2 [Compound 1-101, 8,9-dimethyl-7-(3-(2-methylpyridin-3-yl)-7,8-dihydro-1,6-naphthyridin-6(5H)-yl)-4H-pyrimido[1,2-b]pyridazin-4-one] | 93 | 332
Cc1c(N2CCc3ncc(-c4cncc(C(F)(F)F)c4)cc3C2)nn2c(=O)ccnc2c1C [Compound 1-102, 8,9-dimethyl-7-(3-(5-(trifluoromethyl)pyridin-3-yl)-7,8-dihydro-1,6-naphthyridin-6(5H)-yl)-4H-pyrimido[1,2-b]pyridazin-4-one] | 83 | 733
Cc1c(N2CCc3ncc(-c4cncc(F)c4)cc3C2)nn2c(=O)ccnc2c1C [Compound 1-103, 7-(3-(5-fluoropyridin-3-yl)-7,8-dihydro-1,6-naphthyridin-6(5H)-yl)-8,9-dimethyl-4H-pyrimido[1,2-b]pyridazin-4-one] | 93 | 449
Cc1c(N2CCc3ncc(-c4cncnc4)cc3C2)nn2c(=O)ccnc2c1C [Compound 1-104, 8,9-dimethyl-7-(3-(pyrimidin-5-yl)-7,8-dihydro-1,6-naphthyridin-6(5H)-yl)-4H-pyrimido[1,2-b]pyridazin-4-one] | 90 | 696
CCc1cc(=O)n2nc(N3CCc4ncc(C(F)(F)F)cc4C3)c(C)c(C)c2n1 [Compound 1-105, 2-ethyl-8,9-dimethyl-7-(3-(trifluoromethyl)-7,8-dihydro-1,6-naphthyridin-6(5H)-yl)-4H-pyrimido[1,2-b]pyridazin-4-one] | 99 | 162
CCc1cc(=O)n2nc(N3CCc4ncc(-c5ccc(C)nc5)cc4C3)c(C)c(C)c2n1 [Compound 1-106, 2-ethyl-8,9-dimethyl-7-(3-(6-methylpyridin-3-yl)-7,8-dihydro-1,6-naphthyridin-6(5H)-yl)-4H-pyrimido[1,2-b]pyridazin-4-one] | 104 | 108
Cc1c(N2CCc3ncc(C(F)(F)F)cc3C2)nn2c(=O)cc(C(C)C)nc2c1C [Compound 1-107, 2-isopropyl-8,9-dimethyl-7-(3-(trifluoromethyl)-7,8-dihydro-1,6-naphthyridin-6(5H)-yl)-4H-pyrimido[1,2-b]pyridazin-4-one] | 102 | 178
Cc1ccc(-c2cnc3c(c2)CN(c2nn4c(=O)cc(C(C)C)nc4c(C)c2C)CC3)cn1 [Compound 1-108, 2-isopropyl-8,9-dimethyl-7-(3-(6-methylpyridin-3-yl)-7,8-dihydro-1,6-naphthyridin-6(5H)-yl)-4H-pyrimido[1,2-b]pyridazin-4-one] | 94 | 158
COCc1cc(=O)n2nc(N3CCc4ncc(C(F)(F)F)cc4C3)c(C)c(C)c2n1 [Compound 1-109, 2-(Methoxymethyl)-8,9-dimethyl-7-(3-(trifluoromethyl)-7,8-dihydro-1,6-naphthyridin-6(5H)-yl)-4H-pyrimido[1,2-b]pyridazin-4-one] | 79 | 60
COCc1cc(=O)n2nc(N3CCc4ncc(-c5ccc(C)nc5)cc4C3)c(C)c(C)c2n1 [Compound 1-110, 2-(methoxymethyl)-8,9-dimethyl-7-(3-(6-methylpyridin-3-yl)-7,8-dihydro-1,6-naphthyridin-6(5H)-yl)-4H-pyrimido[1,2-b]pyridazin-4-one] | 95 | 177

From patent publication US20250101041A1, “POSITIVE ALLOSTERIC MODULATORS OF THE MUSCARINIC ACETYLCHOLINE RECEPTOR M4” (Vanderbilt University, priority 2022, published 2025)
